# Assay results published in paper PMC3814719, “Structure of a bacterial putative acetyltransferase defines the fold of the human O-GlcNAcase C-terminal domain” (Open Biology, 2013).
# Target: T1, OgpAT (Oceanicola granulosus, UniProt Q2CEE2)
# T1 construct: gene OG2516_04134; full-length OgpAT, expressed as GST fusion from pGEX-6P-1 in E. coli BL21(DE3) pLysS, GST cut off with PreScission protease; 206 residues in crystal; monomer; biotinylated for SPR; gene immediately downstream of OgOGA
# Assay: surface plasmon resonance, biotinylated protein on streptavidin chip, […] equilibrium fit
# Assay type: binding
# Conditions: read-out: OgpAT, wt
# T1 sequence (Q2CEE2 whole entry, the tested form may be a part): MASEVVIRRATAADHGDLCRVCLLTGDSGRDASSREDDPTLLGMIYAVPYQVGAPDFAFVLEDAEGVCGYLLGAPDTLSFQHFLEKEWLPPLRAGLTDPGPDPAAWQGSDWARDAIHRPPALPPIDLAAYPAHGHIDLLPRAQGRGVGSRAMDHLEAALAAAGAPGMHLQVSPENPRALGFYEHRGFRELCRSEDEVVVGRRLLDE
smiles,measurement,value
CC(=O)SCCNC(=O)CCNC(=O)[C@H](O)C(C)(C)COP(=O)(O)OP(=O)(O)OC[C@H]1O[C@@H](n2cnc3c(N)ncnc32)[C@H](O)[C@@H]1OP(=O)(O)O [AcCoA],Kd,8.3 µM
